Source: US8206762B2, “Use of Echinacea or preparations thereof in compositions for the treatment of anxiety” (priority 2006, dated 2012)
Entries after “also recorded” stand apart in the source; their conditions may differ.

Tests used:
humans = conditions: lorazepam 3×1 mg daily; buspirone 3×5 mg daily; cited from earlier work
Wistar rats = assay: Elevated plus-maze test of anxiety; assay type: in vivo, rat; conditions: FIG. 2
Description: For laboratory studies, we used an ethyl alcoholic Echinacea purpurea root tincture prepared by FitoChem Ltd. (H-2200 Monor, 14 Kossuth Str, ww.fitochem.hu), on the 21st of February, 2006 (Lot number FECH-010011205; analytical ID: 052/06). The dry residue was 1.7% w/w, whereas the lead content was less than 10 μg/g. Microbiological analysis provided satisfactory results (e.g. the total plate count was less than 1000 CFU/g). The extract containing 70% ethyl alcohol was stored at room temperature (validity date under these conditions: March, 2007), and used in experiments in April-May, 2006. Before use, ethyl alcohol was evaporated in vacuum at 4° C. by means of a Speed Vac Concentrator (Savant Instruments Inc., Farmingdale, USA). […] The dose was expressed as mg dry residue/kg body weight. […]
This test was described first by Pellow et al. (1984), and later became one of the most popular anxiety tests, frequently used for the identification of putative anxiolytics. […] To avoid confounds with anxiety, the locomotor effects of compounds are evaluated based on closed arm entries (Hogg, 1996).
The elevated plus-maze (arm length 50 cm, arm width 17 cm; wall height 30 cm; platform height 80 cm) was made of dark grey painted wood, and lit by 4 white lamps of 40 W each (approximately 200 lx). […] Behaviors were scored by experimenters blind to treatment conditions by means of a computer based event recorder. […]

mice = conditions: cited from earlier work
rats = conditions: cited from earlier work

Row | SMILES | time to significant effects over placebo on State-Trait Anxiety Inventory scores (humans) | treatment time to State-Trait anxiety scores lower than 45 (humans) | effect on anxiety in mice (mice) | also measured
1 | O=C1CC2(CCCC2)CC(=O)N1CCCCN1CCN(c2ncccn2)CC1 [buspirone] | 3 weeks | 6 weeks |  | 
2 | O=C1Nc2ccc(Cl)cc2C(c2ccccc2Cl)=NC1O (centres unmarked) [lorazepam] | one week | three weeks |  | 
3 | CNC1=Nc2ccc(Cl)cc2C(c2ccccc2)=[N+]([O-])C1 [chlordiazepoxide] |  |  |  | locomotor behavior (closed arm entries) / sedation (Wistar rats): highly sedative at higher doses; also recorded: significant locomotor suppression
4 | Cc1c(C(=O)NN2CCCCC2)nn(-c2ccc(Cl)cc2Cl)c1-c1ccc(I)cc1 [AM-251] |  |  | anxiogenic | 
5 | Cc1c(C(=O)NN2CCCCC2)nn(-c2ccc(Cl)cc2Cl)c1-c1ccc(Cl)cc1 [SR-141716A] |  |  | anxiolytic | effect on anxiety in rats (rats): anxiogenic
